{"source": "patent US20210254001A1", "about": "“FcyRIIIa signaling generates Bcl6+PD1+CD4+ Tfh-like cells” (priority 2020, published 2021)", "system": "purified human CD4+ T cells", "test": "IL-21 production in IC-treated CD4+ T cells with Syk inhibitor", "format": "cell-based", "conditions": "P505 10 nM; cells producing IL-21 from IC treatment; FIG. 4F (A)", "note": "Entries after “also recorded” stand apart in the source; their conditions may differ.", "data": [{"molecule": "NC(=O)c1cnc(N[C@@H]2CCCC[C@@H]2N)nc1Nc1cccc(-n2nccn2)c1", "note": "[P505]", "values": [{"measurement": "IL-21 production", "value": "IL-21 production is blocked; also recorded: inhibits IL-21 production"}]}]}
